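Each compound was tested at five concentrations against cells in 96-well plates for 48 hours. The concentration for 50% growth inhibition is given as GI50. Definition used: TGI = concentration required for complete inhibition of growth.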
Key:
Assay in all cases: NCI tumour cell line growth inhibition, 48 h
NCI-H522 lung = system: NCI-H522 lung
ACHN renal = system: ACHN renal
HOP-62 NSCLC = system: HOP-62 NSCLC
SF-295 CNS = system: SF-295 CNS
MCF7 breast = system: MCF7 breast
HOP-92 NSCLC = system: HOP-92 NSCLC
KM12 colon = system: KM12 colon
U251 CNS = system: U251 CNS
LOX IMVI melanoma = system: LOX IMVI melanoma
RPMI-8226 leukemia = system: RPMI-8226 leukemia
NCI/ADR-RES ovarian = system: NCI/ADR-RES ovarian
EKVX NSCLC = system: EKVX NSCLC
TK-10 renal = system: TK-10 renal
CAKI-1 renal = system: CAKI-1 renal
HS 578T breast = system: HS 578T breast
UACC-62 melanoma = system: UACC-62 melanoma
PC-3 prostate = system: PC-3 prostate
HCT-116 colon = system: HCT-116 colon
OVCAR-3 ovarian = system: OVCAR-3 ovarian
K-562 leukemia = system: K-562 leukemia
SK-MEL-28 melanoma = system: SK-MEL-28 melanoma
SW-620 colon = system: SW-620 colon
HT29 colon = system: HT29 colon
NCI-H460 lung = system: NCI-H460 lung
SNB-19 CNS = system: SNB-19 CNS
SN12C renal = system: SN12C renal
MOLT-4 leukemia = system: MOLT-4 leukemia
HCC-2998 colon = system: HCC-2998 colon
SK-MEL-2 melanoma = system: SK-MEL-2 melanoma
MDA-MB-231 breast = system: MDA-MB-231 breast
A498 renal = system: A498 renal
DU-145 prostate = system: DU-145 prostate
HL-60(TB) leukemia = system: HL-60(TB) leukemia
OVCAR-8 ovarian = system: OVCAR-8 ovarian
SNB-75 CNS = system: SNB-75 CNS
HCT-15 colon = system: HCT-15 colon
CCRF-CEM leukemia = system: CCRF-CEM leukemia
SR leukemia = system: SR leukemia
NCI-H226 lung = system: NCI-H226 lung
NCI-H23 lung = system: NCI-H23 lung
A549 NSCLC = system: A549 NSCLC
MDA-MB-435 = system: MDA-MB-435
UACC-257 melanoma = system: UACC-257 melanoma
M14 melanoma = system: M14 melanoma
OVCAR-5 ovarian = system: OVCAR-5 ovarian
T-47D breast = system: T-47D breast
COLO 205 colon = system: COLO 205 colon
RXF 393 renal = system: RXF 393 renal
OVCAR-4 ovarian = system: OVCAR-4 ovarian
SK-MEL-5 melanoma = system: SK-MEL-5 melanoma
SF-539 CNS = system: SF-539 CNS
UO-31 renal = system: UO-31 renal
786-0 renal = system: 786-0 renal
IGROV1 ovarian = system: IGROV1 ovarian
SF-268 CNS = system: SF-268 CNS
MALME-3M melanoma = system: MALME-3M melanoma
SK-OV-3 ovarian = system: SK-OV-3 ovarian

CC/C=C\C[C@H](O)C/C=C1/C(=O)C=C[C@@H]1C/C=C\CCCC(=O)N(C)C
GI50 (NCI-H522 lung): 1330 nM | TGI (NCI-H522 lung): 2980 nM | GI50 (ACHN renal): 1450 nM | TGI (ACHN renal): 3.43 µM | GI50 (HOP-62 NSCLC): 1990 nM | TGI (HOP-62 NSCLC): 8.35 µM | GI50 (SF-295 CNS): 2970 nM | TGI (SF-295 CNS): 11.1 µM | GI50 (MCF7 breast): 368 nM | TGI (MCF7 breast): 12.2 µM | GI50 (HOP-92 NSCLC): 2560 nM | TGI (HOP-92 NSCLC): 7.12 µM | GI50 (KM12 colon): 709 nM | TGI (KM12 colon): 4.03 µM | GI50 (U251 CNS): 1320 nM | TGI (U251 CNS): 3.91 µM | GI50 (LOX IMVI melanoma): 356 nM | TGI (LOX IMVI melanoma): 1540 nM | GI50 (RPMI-8226 leukemia): 671 nM | TGI (RPMI-8226 leukemia): 6.01 µM | GI50 (NCI/ADR-RES ovarian): 1080 nM | TGI (NCI/ADR-RES ovarian): 7.9 µM | GI50 (EKVX NSCLC): 3.92 µM | TGI (EKVX NSCLC): 15.6 µM | GI50 (TK-10 renal): 2610 nM | TGI (TK-10 renal): 7.48 µM | GI50 (CAKI-1 renal): 1220 nM | TGI (CAKI-1 renal): 2670 nM | GI50 (HS 578T breast): 4.29 µM | TGI (HS 578T breast): 27.6 µM | GI50 (UACC-62 melanoma): 2200 nM | TGI (UACC-62 melanoma): 5.12 µM | GI50 (PC-3 prostate): 1780 nM | TGI (PC-3 prostate): 4.47 µM | GI50 (HCT-116 colon): 440 nM | TGI (HCT-116 colon): 1680 nM | GI50 (OVCAR-3 ovarian): 471 nM | TGI (OVCAR-3 ovarian): 1790 nM | GI50 (K-562 leukemia): 1020 nM | TGI (K-562 leukemia): > 100 µM | GI50 (SK-MEL-28 melanoma): 1960 nM | TGI (SK-MEL-28 melanoma): 4.31 µM | GI50 (SW-620 colon): 851 nM | TGI (SW-620 colon): 6.16 µM | GI50 (HT29 colon): 853 nM | TGI (HT29 colon): 2970 nM | GI50 (NCI-H460 lung): 2370 nM | TGI (NCI-H460 lung): 7.4 µM | GI50 (SNB-19 CNS): 3.19 µM | TGI (SNB-19 CNS): 14.1 µM | GI50 (SN12C renal): 2600 nM | TGI (SN12C renal): 10.9 µM | GI50 (MOLT-4 leukemia): 2780 nM | TGI (MOLT-4 leukemia): 12.8 µM | GI50 (HCC-2998 colon): 1770 nM | TGI (HCC-2998 colon): 3.2 µM | GI50 (SK-MEL-2 melanoma): 2500 nM | TGI (SK-MEL-2 melanoma): 7.13 µM | GI50 (MDA-MB-231 breast): 3.12 µM | TGI (MDA-MB-231 breast): 8.95 µM | GI50 (A498 renal): 2560 nM | TGI (A498 renal): 4.46 µM | GI50 (DU-145 prostate): 3.27 µM | TGI (DU-145 prostate): 15.4 µM | GI50 (HL-60(TB) leukemia): 2270 nM | TGI (HL-60(TB) leukemia): 13.6 µM | GI50 (OVCAR-8 ovarian): 1540 nM | TGI (OVCAR-8 ovarian): 11.4 µM | GI50 (SNB-75 CNS): 10.9 µM | TGI (SNB-75 CNS): 33.4 µM | GI50 (HCT-15 colon): 1290 nM | TGI (HCT-15 colon): 5.87 µM | GI50 (CCRF-CEM leukemia): 817 nM | TGI (CCRF-CEM leukemia): 5.61 µM | GI50 (SR leukemia): 376 nM | TGI (SR leukemia): 12.3 µM | GI50 (NCI-H226 lung): 2570 nM | TGI (NCI-H226 lung): 7.84 µM | GI50 (NCI-H23 lung): 2000 nM | TGI (NCI-H23 lung): 5.74 µM | GI50 (A549 NSCLC): 3.01 µM | TGI (A549 NSCLC): 11.3 µM | GI50 (MDA-MB-435): 862 nM | TGI (MDA-MB-435): 2370 nM | GI50 (UACC-257 melanoma): 2370 nM | TGI (UACC-257 melanoma): 7.31 µM | GI50 (M14 melanoma): 2790 nM | TGI (M14 melanoma): 11 µM | GI50 (OVCAR-5 ovarian): 2460 nM | TGI (OVCAR-5 ovarian): 5.51 µM | GI50 (T-47D breast): 2570 nM | TGI (T-47D breast): 11.8 µM | GI50 (COLO 205 colon): 1450 nM | TGI (COLO 205 colon): 3.3 µM | GI50 (RXF 393 renal): 1730 nM | TGI (RXF 393 renal): 3.26 µM | GI50 (OVCAR-4 ovarian): 2070 nM | TGI (OVCAR-4 ovarian): 13.5 µM | GI50 (SK-MEL-5 melanoma): 1600 nM | TGI (SK-MEL-5 melanoma): 3000 nM | GI50 (SF-539 CNS): 2180 nM | TGI (SF-539 CNS): 7.14 µM | GI50 (UO-31 renal): 1410 nM | TGI (UO-31 renal): 2930 nM | GI50 (786-0 renal): 504 nM | TGI (786-0 renal): 2090 nM | GI50 (IGROV1 ovarian): 3.3 µM | TGI (IGROV1 ovarian): 11.2 µM | GI50 (SF-268 CNS): 3.04 µM | TGI (SF-268 CNS): 13.9 µM | GI50 (MALME-3M melanoma): 3.05 µM | TGI (MALME-3M melanoma): 8.81 µM | GI50 (SK-OV-3 ovarian): 4.36 µM | TGI (SK-OV-3 ovarian): 15.6 µM

— PubChem BioAssay (NCI)
